Columns and labels:
Experiment in all cases: relative viability (nuclei count vs DMSO), 5 days (fraction); higher = more cells survive
[1] = test system: NCI-H2085
Outline: (§1)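 Nuclei were stained with Hoechst during a one-step fixation (final 0.05% Triton X-100, 1% formaldehyde, 1 ug/ml Hoechst) carried out 5 days after dosing, then counted on 4× images. The cells, lung cancer lines in 1536-well plates, had been dosed by pin tool the day after seeding with one drug alone or a fixed anchor-drug dose plus five library-drug doses (not always all listed) in √10 steps. Relative viability is the nuclei count in treated wells divided by that in vehicle wells, and each value is the median of duplicate plates.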

[2] = test system: HOP-62
Outline: as §1

[3] = test system: HCC-15
Outline: as §1

[4] = test system: ABC-1
Outline: as §1

[5] = test system: LU99A
Outline: as §1

[6] = test system: NCI-H838
Outline: as §1

[7] = test system: NCI-H2347
Outline: as §1

[8] = test system: HARA
Outline: as §1

[9] = test system: NCI-H1993
Outline: as §1

[10] = test system: NCI-H2023
Outline: as §1

[11] = test system: COR-L23
Outline: as §1

SMILES: Cc1sc2c(c1C)C(c1ccc(Cl)cc1)=N[C@@H](CC(=O)OC(C)(C)C)c1nnc(C)n1-2 [JQ1] + Nc1ncn([C@H]2C[C@H](O)[C@@H](CO)O2)c(=O)n1 [Decitabine] (partner 2 µM)
- relative viability ([1]; first compound 0.04 µM): 0.538
- relative viability ([1]; first compound 0.1265 µM): 0.595
- relative viability ([1]; first compound 0.4 µM): 0.509
- relative viability ([1]; first compound 1.265 µM): 0.454
- relative viability ([1]; first compound 4 µM): 0.473
- relative viability ([2]; first compound 0.04 µM): 0.238
- relative viability ([2]; first compound 0.1265 µM): 0.19
- relative viability ([2]; first compound 0.4 µM): 0.201
- relative viability ([2]; first compound 1.265 µM): 0.156
- relative viability ([2]; first compound 4 µM): 0.128
- relative viability ([3]; first compound 0.04 µM): 0.617
- relative viability ([3]; first compound 0.1265 µM): 0.491
- relative viability ([3]; first compound 0.4 µM): 0.6
- relative viability ([3]; first compound 1.265 µM): 0.406
- relative viability ([3]; first compound 4 µM): 0.408
- relative viability ([4]; first compound 0.04 µM): 1.19
- relative viability ([4]; first compound 0.1265 µM): 0.889
- relative viability ([4]; first compound 0.4 µM): 0.691
- relative viability ([4]; first compound 1.265 µM): 0.837
- relative viability ([4]; first compound 4 µM): 0.582
- relative viability ([5]; first compound 0.04 µM): 0.932
- relative viability ([5]; first compound 0.4 µM): 0.623
- relative viability ([5]; first compound 1.265 µM): 0.293
- relative viability ([5]; first compound 4 µM): 0.254
- relative viability ([6]; first compound 0.04 µM): 0.458
- relative viability ([6]; first compound 0.1265 µM): 0.371
- relative viability ([6]; first compound 0.4 µM): 0.347
- relative viability ([6]; first compound 1.265 µM): 0.282
- relative viability ([6]; first compound 4 µM): 0.235
- relative viability ([7]; first compound 0.04 µM): 0.664
- relative viability ([7]; first compound 0.1265 µM): 0.6
- relative viability ([7]; first compound 0.4 µM): 0.58
- relative viability ([7]; first compound 1.265 µM): 0.506
- relative viability ([7]; first compound 4 µM): 0.437
- relative viability ([8]; first compound 0.04 µM): 0.617
- relative viability ([8]; first compound 0.1265 µM): 0.49
- relative viability ([8]; first compound 0.4 µM): 0.457
- relative viability ([8]; first compound 1.265 µM): 0.385
- relative viability ([8]; first compound 4 µM): 0.249
- relative viability ([9]; first compound 0.04 µM): 0.586
- relative viability ([9]; first compound 0.1265 µM): 0.636
- relative viability ([9]; first compound 0.4 µM): 0.553
- relative viability ([9]; first compound 1.265 µM): 0.538
- relative viability ([9]; first compound 4 µM): 0.475
- relative viability ([10]; first compound 0.04 µM): 0.233
- relative viability ([10]; first compound 0.1265 µM): 0.228
- relative viability ([10]; first compound 0.4 µM): 0.198
- relative viability ([10]; first compound 1.265 µM): 0.14
- relative viability ([10]; first compound 4 µM): 0.13
- relative viability ([11]; first compound 0.04 µM): 0.421
- relative viability ([11]; first compound 0.1265 µM): 0.351
- relative viability ([11]; first compound 0.4 µM): 0.387
- relative viability ([11]; first compound 1.265 µM): 0.272
- relative viability ([11]; first compound 4 µM): 0.332
